Test results taken from PubChem BioAssay AID256 (DTP/NCI, 2004).
Toxic doses and inconclusive results are not listed. How the source made its calls: active means survival T/C of 150% or more; inactive means T/C below 125% in these data. Residues, ends and D or L forms follow the SMILES beside them. *: point of attachment. Dnp = O=[N+]([O-])c1ccc(*)c([N+](=O)[O-])c1

Tested on: CD2F1 mice, L1210 leukemia ip, survival T/C
Test: NCI In Vivo Anticancer Drug Screen. Data for tumor model L1210 Leukemia (intraperitoneal) in CD2F1 (CDF1) mice
Conditions: higher = longer survival
Procedure, shortened: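 Vehicle-treated tumor-bearing mice served as controls (C) for compound-treated mice (T). Reported figure is T divided by C.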

[1] = endpoint: mean survival time, dose: 100.0 mg/kg/injection, schedule: Q04DX003 (ip), vehicle: saline with Tween-80
[2] = endpoint: mean survival time, dose: 200.0 mg/kg/injection, schedule: Q04DX003 (ip), vehicle: saline with Tween-80
[3] = endpoint: mean survival time, dose: 400.0 mg/kg/injection, schedule: Q04DX003 (ip), vehicle: saline with Tween-80
[4] = endpoint: mean survival time, dose: 100.0 mg/kg/injection, schedule: Q01DX009 (ip), vehicle: saline with Tween-80
[5] = endpoint: mean survival time, dose: 200.0 mg/kg/injection, schedule: Q01DX009 (ip), vehicle: saline with Tween-80
[6] = endpoint: mean survival time, dose: 400.0 mg/kg/injection, schedule: Q01DX009 (ip), vehicle: saline with Tween-80
[7] = endpoint: mean survival time, dose: 100.0 mg/kg/injection, schedule: Q04DX002 (ip), vehicle: saline with Tween-80
[8] = endpoint: mean survival time, dose: 200.0 mg/kg/injection, schedule: Q04DX002 (ip), vehicle: saline with Tween-80
[9] = endpoint: mean survival time, dose: 400.0 mg/kg/injection, schedule: Q04DX002 (ip), vehicle: saline with Tween-80
[10] = endpoint: mean survival time, dose: 100.0 mg/kg/injection, schedule: Q04DX003 (ip), vehicle: Klucel (hydroxypropylcellulose) (HPC)
[11] = endpoint: mean survival time, dose: 25.0 mg/kg/injection, schedule: Q01DX009 (ip), vehicle: saline with Tween-80
[12] = endpoint: mean survival time, dose: 100.0 mg/kg/injection, schedule: Q01DX001 (ip), vehicle: saline with Tween-80
[13] = endpoint: mean survival time, dose: 200.0 mg/kg/injection, schedule: Q01DX001 (ip), vehicle: saline with Tween-80
[14] = endpoint: mean survival time, dose: 400.0 mg/kg/injection, schedule: Q01DX001 (ip), vehicle: saline with Tween-80
[15] = endpoint: mean survival time, dose: 100.0 mg/kg/injection, schedule: Q01DX001 (ip), vehicle: Klucel (hydroxypropylcellulose) (HPC)
[16] = endpoint: mean survival time, dose: 200.0 mg/kg/injection, schedule: Q01DX001 (ip), vehicle: Klucel (hydroxypropylcellulose) (HPC)
[17] = endpoint: mean survival time, dose: 400.0 mg/kg/injection, schedule: Q01DX001 (ip), vehicle: Klucel (hydroxypropylcellulose) (HPC)
[18] = endpoint: mean survival time, dose: 100.0 mg/kg/injection, schedule: Q01DX001 (ip), vehicle: saline
[19] = endpoint: mean survival time, dose: 50.0 mg/kg/injection, schedule: Q01DX009 (ip), vehicle: saline with Tween-80

Measured: T/C

Clc1ccc([I+]c2ccc(Cl)cc2)cc1
inactive: endpoint: median survival time, dose: 25.0 mg/kg/injection, schedule: Q04DX002 (ip), vehicle: saline with Tween-80 102 % of control | endpoint: median survival time, dose: 50.0 mg/kg/injection, schedule: Q04DX002 (ip), vehicle: saline with Tween-80 98 % of control | endpoint: median survival time, dose: 100.0 mg/kg/injection, schedule: Q04DX002 (ip), vehicle: saline with Tween-80 91 % of control

CC(C)CCC(C)C1CCC2C3CC([N+](=O)[O-])=C4CC(OC(=O)c5ccccc5)CCC4(C)C3CCC12C (stereo unspecified)
inactive: [1] 102 % of control | [2] 92 % of control | [3] 92 % of control

O=P(OCCCOCc1ccccc1)(N(CCCl)CCCl)N1CC1 (stereo unspecified)
inactive: endpoint: mean survival time, dose: 25.0 mg/kg/injection, schedule: Q01DX001 (ip), vehicle: other 104 % of control | endpoint: mean survival time, dose: 50.0 mg/kg/injection, schedule: Q01DX001 (ip), vehicle: other 106 % of control | endpoint: mean survival time, dose: 100.0 mg/kg/injection, schedule: Q01DX001 (ip), vehicle: DMSO 98 % of control | endpoint: mean survival time, dose: 100.0 mg/kg/injection, schedule: Q01DX001 (ip), vehicle: other 118 % of control | endpoint: mean survival time, dose: 200.0 mg/kg/injection, schedule: Q01DX001 (ip), vehicle: DMSO 103 % of control | endpoint: mean survival time, dose: 200.0 mg/kg/injection, schedule: Q01DX001 (ip), vehicle: other 101 % of control | endpoint: mean survival time, dose: 400.0 mg/kg/injection, schedule: Q01DX001 (ip), vehicle: DMSO 109 % of control | endpoint: mean survival time, dose: 400.0 mg/kg/injection, schedule: Q01DX001 (ip), vehicle: other 87 % of control

Cc1c(Cl)cc(Cl)c(N)c1Cl
inactive: [4] 93 % of control | [5] 97 % of control | [6] 97 % of control

CCCCCCCC/C=C\CCCCCCCC(=O)OCCCCC
inactive: [7] 87 % of control | [8] 95 % of control | [9] 106 % of control

CC(C)NCC1CC2c3cccc4[nH]cc(c34)CC2N(C)C1 (stereo unspecified)
inactive: endpoint: median survival time, dose: 25.0 mg/kg/injection, schedule: Q04DX003 (ip), vehicle: saline with Tween-80 100 % of control | endpoint: median survival time, dose: 50.0 mg/kg/injection, schedule: Q04DX003 (ip), vehicle: saline with Tween-80 111 % of control

COc1ccccc1NC(=O)Nc1cccc([N+](=O)[O-])c1OC
inactive: [7] 97 % of control | [8] 87 % of control | [9] 94 % of control

CCCNC(=O)OCC#CC#CCOC(=O)NCCC
inactive: [10] 94 % of control | endpoint: mean survival time, dose: 200.0 mg/kg/injection, schedule: Q04DX003 (ip), vehicle: Klucel (hydroxypropylcellulose) (HPC) 98 % of control | endpoint: mean survival time, dose: 400.0 mg/kg/injection, schedule: Q04DX003 (ip), vehicle: Klucel (hydroxypropylcellulose) (HPC) 96 % of control

Nc1ccc2ccccc2c1N=Nc1ccccc1
inactive: endpoint: mean survival time, dose: 50.0 mg/kg/injection, schedule: Q01DX009 (ip), vehicle: Klucel (hydroxypropylcellulose) (HPC) 106 % of control | endpoint: mean survival time, dose: 100.0 mg/kg/injection, schedule: Q01DX009 (ip), vehicle: Klucel (hydroxypropylcellulose) (HPC) 112 % of control | endpoint: mean survival time, dose: 200.0 mg/kg/injection, schedule: Q01DX009 (ip), vehicle: Klucel (hydroxypropylcellulose) (HPC) 113 % of control | endpoint: mean survival time, dose: 400.0 mg/kg/injection, schedule: Q01DX009 (ip), vehicle: Klucel (hydroxypropylcellulose) (HPC) 103 % of control

CC[N+](C)(CC)CCCOC(=O)C(c1ccccc1)c1ccccc1
inactive: endpoint: mean survival time, dose: 6.25 mg/kg/injection, schedule: Q01DX009 (ip), vehicle: saline with Tween-80 96 % of control | endpoint: mean survival time, dose: 12.5 mg/kg/injection, schedule: Q01DX009 (ip), vehicle: saline with Tween-80 96 % of control | [11] 94 % of control

CC(=O)Nc1ccc(Cc2[nH]c(=O)[nH]c(=O)c2Br)cc1[N+](=O)[O-]
inactive: [12] 95 % of control | [13] 91 % of control | [14] 89 % of control

Cc1nc2ccc(N)cc2[nH]1
inactive: endpoint: mean survival time, dose: 50.0 mg/kg/injection, schedule: Q01DX009 (ip), vehicle: saline 95 % of control | endpoint: mean survival time, dose: 100.0 mg/kg/injection, schedule: Q01DX009 (ip), vehicle: saline 113 % of control | endpoint: mean survival time, dose: 200.0 mg/kg/injection, schedule: Q01DX009 (ip), vehicle: saline 95 % of control

BrC1=C(c2ccccc2)C2CCCCC2C1(Br)c1ccccc1 (stereo unspecified)
inactive: [15] 98 % of control | [16] 102 % of control | [17] 102 % of control

N#CCC(=O)OCCCCOC(=O)CC#N
inactive: [4] 96 % of control | [1] 103 % of control | [5] 97 % of control | [2] 97 % of control | [6] 96 % of control | [3] 100 % of control

CCOC(=O)Nc1cc(NCCc2ccccc2)c(N)c(N)n1
inactive: endpoint: mean survival time, dose: 50.0 mg/kg/injection, schedule: Q01DX001 (ip), vehicle: saline 101 % of control | [18] 92 % of control

C[n+]1ccccc1SC12CC3CC(CC(C3)C1)C2
inactive: endpoint: mean survival time, dose: 2.5 mg/kg/injection, schedule: Q01DX009 (ip), vehicle: Klucel (hydroxypropylcellulose) (HPC) 98 % of control | endpoint: mean survival time, dose: 5.0 mg/kg/injection, schedule: Q01DX009 (ip), vehicle: Klucel (hydroxypropylcellulose) (HPC) 98 % of control | endpoint: mean survival time, dose: 10.0 mg/kg/injection, schedule: Q01DX009 (ip), vehicle: Klucel (hydroxypropylcellulose) (HPC) 103 % of control

C=C1C(=O)O[C@H]2C[C@@H](C)[C@@H]3[C@@H](O)C[C@@H](O)[C@@]3(C)C[C@H]12
inactive: [4] 100 % of control | [1] 102 % of control | [5] 94 % of control | [2] 96 % of control | [6] 100 % of control | [3] 103 % of control

O=C1CC2CCC1C2 (stereo unspecified)
inactive: endpoint: mean survival time, dose: 25.0 mg/kg/injection, schedule: Q04DX003 (ip), vehicle: Klucel (hydroxypropylcellulose) (HPC) 97 % of control | endpoint: mean survival time, dose: 50.0 mg/kg/injection, schedule: Q04DX003 (ip), vehicle: Klucel (hydroxypropylcellulose) (HPC) 98 % of control | [10] 97 % of control

COc1cc(OC)c(NC(=O)C(=O)Nc2cc(Cl)c(OC)cc2OC)cc1Cl
inactive: [19] 88 % of control | [4] 88 % of control | [5] 91 % of control

NCC(=O)NC(CSc1ccc([N+](=O)[O-])cc1[N+](=O)[O-])C(=O)NC(CCC(=O)O)C(=O)O (stereo unspecified) (H-Gly-Cys(Dnp)-Glu-OH; configuration not given here)
inactive: [1] 103 % of control | [2] 101 % of control | [3] 98 % of control

O=[N+]([O-])c1ccccc1-c1ccc(Cl)cc1
inactive: [12] 88 % of control | [13] 91 % of control | [14] 92 % of control

C(=NCCN=Cc1ccccc1)c1ccccc1
inactive: [4] 97 % of control | [5] 97 % of control | [6] 96 % of control

O=S(=O)(O)O.[Ga]
inactive: [11] 120 % of control | [19] 117 % of control | [4] 90 % of control

N#C/C(=C\c1ccco1)c1ccc([N+](=O)[O-])cc1
inactive: endpoint: mean survival time, dose: 6.25 mg/kg/injection, schedule: Q04DX003 (ip), vehicle: saline with Tween-80 102 % of control | endpoint: mean survival time, dose: 12.5 mg/kg/injection, schedule: Q04DX003 (ip), vehicle: saline with Tween-80 102 % of control | endpoint: mean survival time, dose: 25.0 mg/kg/injection, schedule: Q04DX003 (ip), vehicle: saline with Tween-80 100 % of control | [15] 106 % of control | [16] 95 % of control | [17] 94 % of control

OCC(O)C1OC(OC2CCCCC2)C(O)C(O)C1O (stereo unspecified)
inactive: [18] 95 % of control | endpoint: mean survival time, dose: 200.0 mg/kg/injection, schedule: Q01DX001 (ip), vehicle: saline 101 % of control | endpoint: mean survival time, dose: 400.0 mg/kg/injection, schedule: Q01DX001 (ip), vehicle: saline 96 % of control

CC(=O)Oc1ccc2ncccc2c1Cc1c(OC(C)=O)ccc2ncccc12
inactive: endpoint: mean survival time, dose: 75.0 mg/kg/injection, schedule: Q01DX001 (ip), vehicle: saline 90 % of control | endpoint: mean survival time, dose: 300.0 mg/kg/injection, schedule: Q01DX001 (ip), vehicle: saline 91 % of control

CC(C)=CC(O)CC(O)(C(F)(F)F)C(F)(F)F (stereo unspecified)
inactive: [15] 94 % of control | [7] 94 % of control | [16] 97 % of control | [8] 94 % of control | [17] 100 % of control | [9] 90 % of control
